# doi:10.1101/2020.04.28.066902v2 (bioRxiv, 2020)
# Entries after “also recorded” stand apart in the source; their conditions may differ.
# Assay: Equilibrium peptide uptake in human OA cartilage explants
# Type: in vitro ADME
sequence,measurement,setting,value
RKKRRQRRR [TAT-PTD],partitioning coefficient with 500 mM NaCl vs untreated cartilage,"500 mM NaCl added to the PBS, p=0.3, n=24",not
same,partitioning coefficient after trypsin treatment vs untreated cartilage,"cartilage degraded in 5 mM trypsin for 24 hours prior to uptake, p=0.045, n=24",reduced; also recorded: decreased partitioning coefficients; also recorded: decreased uptake
